{"source": "paper PMC4546118", "about": "(SpringerPlus, 2015)", "key": {"[1]": {"experiment": "Pharmacokinetics of VCM after intravenous administration to control and PN rats", "details": "5 mg/kg intravenous bolus, two-compartment model, plasma LC/MS/MS", "procedure": "(§1) Briefly, 3 days before the start of PN administration, cardiac catheterization was performed via the right jugular vein with a polyurethane catheter (0.6-mm ID, 0.9-mm OD, Primetech Co., Tokyo, Japan) in rats anesthetized with sodium pentobarbital, and given ampicillin for prevention of infection and local bupivacaine for pain relief. The cannulated rats were housed individually in cages with free access to food and water, and received saline at a rate of 0.1 mL/h for 3 days via the catheter with a syringe pump (ISIS Co., Ltd., Osaka, Japan), and daily ampicillin (2 mg/kg, 2-min infusion) for recovery from surgery. For PN administration, infusion of PN solution was started at a rate of 1.25 mL/h for 2 days under fasting and water-deprived conditions; PN solution consisting of glucose, amino acids, electrolytes, and vitamins (approximately 0.97 kcal/mL) was prepared by mixing PNTWIN No. 3 with VITAJECT (Fukushima et al. [2015]). Subsequently, PN administration was performed at a rate of 2.5 mL/h (viz., 60 mL/day, 58 kcal/day) for 7 days; likewise, the sham operated rats (control rats) underwent the same regimen with saline and allowed free access to food throughout the treatment.\n(§2) Blood samples were taken 5, 15, 30, 45, 60, 90, 120, 180, 240, and 360 min after administration, and were centrifuged at 12,000 rpm for 15 min to collect the plasma fraction. In the intraduodenal administration study, the abdominal cavity was opened in anesthetized rats and the stomach was exposed. […] After administration, the incision was closed with a tissue adhesive and the pylorus was ligated. Blood samples were taken 5, 15, 30, 60, 90, 120, 180, 240, 300, and 360 min after administration, and plasma samples were collected by centrifugation. The collected plasma samples in both studies were immediately frozen at −80 °C until analysis.\n(§3) After vortexing and centrifugation at 12,000 rpm for 15 min, the supernatant was diluted in 340 µL of distilled water and was passed through a filter, and 10 µL of the filtrate was injected into a Quattro Ultima LC/MS/MS system with a 2690 Separation Module (Waters Co, MA, UK). […] Mass spectrometry was conducted with electrospray ionization in positive mode (ESI+) under the following conditions: source temperature, 130 °C; cone voltage, 35 V; capillary voltage, 4.0 kV.\n(§4) All pharmacokinetic analyses were performed using WinNonlin® Version 6.3 (Pharsight, Mountain View, CA). The structural parameters, including the absorption rate constant (ka), distribution volume of the central compartment (Vc), distribution volume of the peripheral compartment (Vp), total body clearance (CLtot), and distribution clearance (CLD2), and the secondary parameters including the maximum concentration (Cmax), time to maximum concentration (Tmax), distribution half-life (t1/2α), elimination half-life (t1/2β), and the area under the plasma concentration–time curve (AUC) were calculated. The bioavailability (F) was calculated using the following equation: F=AUCintraduodenal/Doseintraduodenal/AUCintravenous/Doseintravenous, where Dose represents the administered dosage.\n(§5) All values are represented by the mean ± standard error (SE). Statistical differences of the means were assumed to be significant when p < 0.05 by the Mann–Whitney U test."}, "[2]": {"experiment": "Pharmacokinetics of VCM after intraduodenal administration to control and PN rats", "details": "for F (bioavailability): 20 mg/kg intraduodenal vs 5 mg/kg intravenous, dose-normalised AUC ratio; for ka (absorption rate constant) / CLD2/F / Cmax (maximum concentration) / Vc/F / Vp/F / t1/2α (distribution half-life) / t1/2β (elimination half-life) / CLtot/F: 20 mg/kg intraduodenal, two-compartment model with first-order absorption, plasma LC/MS/MS; for ka (absorption rate constant): pylorus ligated", "procedure": "as §1, §2, §3, §4, §5"}, "[3]": {"design": "method as in Kusama et al. [1998]", "details": "binding to plasma proteins; ref Kusama et al. [1998]; cited from earlier work"}, "[4]": {"details": "PN rats (parenteral nutrition for 9 days), mean of n = 4"}, "[5]": {"details": "PN rats (parenteral nutrition for 9 days), mean of n = 4, p<0.05 vs control"}}, "data": [{"molecule": "CN[C@H](CC(C)C)C(=O)N[C@H]1C(=O)N[C@@H](CC(N)=O)C(=O)N[C@H]2C(=O)N[C@H]3C(=O)N[C@H](C(=O)N[C@H](C(=O)O)c4cc(O)cc(O)c4-c4cc3ccc4O)[C@H](O)c3ccc(c(Cl)c3)Oc3cc2cc(c3O[C@@H]2O[C@H](CO)[C@@H](O)[C@H](O)[C@H]2O[C@H]2C[C@](C)(N)[C@H](O)[C@H](C)O2)Oc2ccc(cc2Cl)[C@H]1O", "note": "[VCM, vancomycin]", "values": [{"measurement": "AUC (area under the plasma concentration vs time curve)", "setting": "[1]; [4]", "result": 807, "unit": "µg·min/mL"}, {"measurement": "CLD2 (distribution clearance)", "setting": "[1]; [4]", "result": 4.23, "unit": "mL/min/kg"}, {"measurement": "CLtot (total body clearance)", "setting": "[1]; [4]", "result": 6.22, "unit": "mL/min/kg"}, {"measurement": "Vc (distribution volume of the central compartment)", "setting": "[1]; [4]", "result": 0.234, "unit": "L/kg"}, {"measurement": "Vp (distribution volume of the peripheral compartment)", "setting": "[1]; [4]", "result": 0.223, "unit": "L/kg"}, {"measurement": "t1/2α (distribution half-life)", "setting": "[1]; [4]", "result": 13.72, "unit": "min"}, {"measurement": "Vc (distribution volume of the central compartment)", "setting": "[1]; control rats (sham, saline), male Wistar, mean of n = 4 (SE in own column)", "result": 0.214, "unit": "L/kg"}, {"measurement": "AUC (area under the plasma concentration vs time curve)", "setting": "[1]; control rats, mean of n = 4", "result": 788, "unit": "µg·min/mL"}, {"measurement": "CLD2 (distribution clearance)", "setting": "[1]; control rats, mean of n = 4", "result": 6.26, "unit": "mL/min/kg"}, {"measurement": "CLtot (total body clearance)", "setting": "[1]; control rats, mean of n = 4", "result": 6.44, "unit": "mL/min/kg"}, {"measurement": "Vp (distribution volume of the peripheral compartment)", "setting": "[1]; control rats, mean of n = 4", "result": 0.283, "unit": "L/kg"}, {"measurement": "t1/2α (distribution half-life)", "setting": "[1]; control rats, mean of n = 4", "result": 9.72, "unit": "min"}, {"measurement": "F (bioavailability)", "setting": "[2]; [5]", "result": 1.295, "unit": "%"}, {"measurement": "ka (absorption rate constant)", "setting": "[2]; [4]", "result": 0.256, "unit": "min⁻¹"}, {"measurement": "CLD2/F", "setting": "[2]; [4]", "result": 1360, "unit": "mL/min/kg"}, {"measurement": "Cmax (maximum concentration)", "setting": "[2]; [4]", "result": 267, "unit": "ng/mL"}, {"measurement": "Vc/F", "setting": "[2]; [4]", "result": 89, "unit": "L/kg"}, {"measurement": "Vp/F", "setting": "[2]; [4]", "result": 29, "unit": "L/kg"}, {"measurement": "t1/2α (distribution half-life)", "setting": "[2]; [4]", "result": 26.2, "unit": "min"}, {"measurement": "t1/2β (elimination half-life)", "setting": "[2]; [4]", "result": 150, "unit": "min"}, {"measurement": "CLtot/F", "setting": "[2]; [5]", "result": 590, "unit": "mL/min/kg"}, {"measurement": "ka (absorption rate constant)", "setting": "[2]; control rats (sham, saline), mean of n = 4", "result": 0.214, "unit": "min⁻¹"}, {"measurement": "F (bioavailability)", "setting": "[2]; control rats, mean of n = 4", "result": 0.504, "unit": "%"}, {"measurement": "CLD2/F", "setting": "[2]; control rats, mean of n = 4", "result": 2050, "unit": "mL/min/kg"}, {"measurement": "CLtot/F", "setting": "[2]; control rats, mean of n = 4", "result": 1340, "unit": "mL/min/kg"}, {"measurement": "Cmax (maximum concentration)", "setting": "[2]; control rats, mean of n = 4", "result": 111, "unit": "ng/mL"}, {"measurement": "Vc/F", "setting": "[2]; control rats, mean of n = 4", "result": 158, "unit": "L/kg"}, {"measurement": "Vp/F", "setting": "[2]; control rats, mean of n = 4", "result": 107, "unit": "L/kg"}, {"measurement": "t1/2α (distribution half-life)", "setting": "[2]; control rats, mean of n = 4", "result": 31.4, "unit": "min"}, {"measurement": "t1/2β (elimination half-life)", "setting": "[2]; control rats, mean of n = 4", "result": 174, "unit": "min"}, {"measurement": "protein binding rate", "setting": "[3]", "result": "approximately 47%"}]}]}
